Reference: paper PMC10215749, “Determination of the affinity constants for phage display albumin-binding peptides” (PeerJ, 2023)

How the values were obtained:
HSA [1] = target: T1, HSA (Homo sapiens, UniProt P02768); experiment: Relative dissociation constant of peptide-fused phage by double-reciprocal plot of phage titers
Protocol: A single E. coli ER2738 colony was inoculated into 10 mL LB-Tet medium and incubated at 37 °C by shaking until mid-log phase (OD600∼0.5) for phage titering. Phage solutions were diluted 10-fold serially in TBS (50 mM Tris–HCl, pH 7.5, 150 mM NaCl) and aliquots of these solutions (50 µL) were added to a suspension of the prepared ER2738 cells (450 µL), 1 for each phage dilution. The phage-infected ER2738 cells (100 µL) were then poured from each dilution tube to an LB-Tet-IPTG-X-gal plate and the plates were incubated overnight at 37 °C. We determined the number of phage particles contained in the original stock phage culture by counting the number of plaques formed on the seeded agar plate and multiplying this by the dilution factor.
The concentration of bound phage [ ϕT] and free phage [ ϕ] can be calculated from the mass conservation equation, where [ ϕ] T is the total concentration of input phage and the concentration of target bound phage [ ϕT] can be estimated by eluted phage concentration [ ϕ] e, which is very much less than [ ϕ] T in our experiment. (6) ϕ=ϕt−ϕe≈ϕt (7) ϕT≈ϕe.
A double reciprocal plot of phage-target affinity measurement is generated by plotting 1/[ ϕ] e as a function of 1/[ ϕ] t. The slope is Kd/[T], the intercept on the vertical axis is 1/[T], and the intercept on the horizontal axis is −1/ Kd. […] (8) 1/ϕe=Kd/Tϕt+1/T.
Then TBST buffer wash the unbound phages, followed by the elution of the bound phages to the well with glycine-HCl, pH2.2. The concentration of input and eluted phage was quantitated by titration. […] These phage-fused peptides were subjected to DNA sequencing and their corresponding heptapeptide sequences are also shown in Table 3.

HSA [2] = target: T1, HSA; experiment: Phage clone binding to HSA, specificity ratio by phage titer; parameters: purchased Sigma; settings: for Blank control phage titre: single clone eluted from blank control well; for Blank control phage titre / Elute phage titre (HSA-coated well): input 1.16 × 10^12 (HSA-3), 1.34 × 10^13 (HSA-4) pfu/ml; for Elute phage titre (HSA-coated well): single clone
Protocol: After rapid washing three times with TBST (TBS + 0.1% [v/v] Tween-20), 100 µL of the diluted phage library (∼2 × 10^11 phage) was added to the well of the coated plate and rocked gently to let them absorb for 60 min. Following 10 washes with TBST, the bound phages were eluted with 0.2 M Gly-HCl, pH 2.2. The 100 µL that was eluted was neutralized with 15 µL Tris–HCl (1 M, pH 9.1) immediately. A small amount of eluted phage was titered as described above and the rest of elutes were added to 20 ml ER2738 culture (OD 600∼0.5) to be amplified 4.5 h at 37 °C for the next round.
To evaluate the efficiency of the phage display panning procedure, we created two selection criteria: the recovery yield and the specificity ratio. The recovery yield is the ratio of the titer of the eluted phage to the input phage. The specificity ratio is the ratio of the titer of the eluted phage from the target coated well to the blank control well. Recovery Y ield%=Elutephagetiterfromtarget/Inputphagetiter×100 Specificity Ratio=Elutephagetiterfromtarget/Elutephagetiterfromblank.
The amplified culture of phage clones was transferred to a 50 mL centrifuge tube and centrifuged for 10 min at 10,000 rpm at 4 °C with a high-speed refrigerated centrifuge (Himac CR21G). The supernatant was decanted to a fresh tube and precipitated by 1/5 volume of PEG/-NaCl (20% [w/v] Polyethylene Glycol–8000, 2.5 M NaCl) at 4 °C overnight and centrifuged for 20 min at 10,000 rpm. The supernatant was discarded and the sediment containing phage was suspended with TBS. To precipitate the phage again, a 1/5 volume of PEG/NaCl was added to the culture and it was stored at 4 °C for at least 60 min. The PEG suspension was centrifuged for 10 min at 10,000 rpm, the phage precipitate was suspended in 500 µL of TBS.
The sequences of HSA-binding peptides were determined by DNA sequencing of the selected phage using −96 gIII sequencing primer 5′-[…]-3′ in the Ph.D-7 phage library.
The specificity ratio was used to determine if positive phage clones with high HSA-binding affinity were isolated. […] We tested the selected clones with significant specificity ratios as potential HSA-binders, after screening many phage clones that consisted of microplate-surface-binding phages, the specific and non-specific target-binding phages, from the target-binding plate as shown in Table 3. The two selected clones, HSA-3 and HSA-4, show specificity ratios of 7.4 and 9.8, respectively, confirming that our method in the panning process is effective.

Human serum albumin [3] = target: T2, Human serum albumin (human, UniProt P02768 25-609); experiment: phage binding to coated microplate, read by phage titer (double reciprocal plot); constant HSA coated in microtiter wells, varying input phage until equilibrium, TBST wash, elution with glycine-HCl pH 2.2, input and eluted phage titered; relative dissociation constant = slope/intercept of 1/eluted against 1/input; settings: both partners purified
T2 construct: human serum albumin (HSA), bought from Sigma, coated on microplate wells; also called HSA; HSA target; source: bought: Sigma

Human serum albumin [4] = target: T2, Human serum albumin; experiment: phage binding to coated microplate, read by phage titer (specificity ratio); HSA coated in microplate wells, no blocking protein; purified phage clone added, washed with TBST, eluted with Gly-HCl pH 2.2 and titered; ratio of the eluted titer from the HSA well to that from a blank well; settings: both partners purified

## ITPLPLR [HSA-4]
HSA [1]; HSA-4, sample 1, input 5.90×10^13 pfu/L
  Elute phage titer Φe: 5.0×10^6 pfu/L
HSA [1]; HSA-4, sample 2, input 3.88×10^13 pfu/L
  Elute phage titer Φe: 4.32×10^6 pfu/L
HSA [1]; HSA-4, sample 2, input concentration printed 1.55×10^7 mol/L
  Elute phage concentration [Φ]e: 1.4e-14 mol/L
HSA [1]; HSA-4, sample 3, input 2.93×10^13 pfu/L
  Elute phage titer Φe: 2.87×10^6 pfu/L
HSA [1]; HSA-4, sample 3, input concentration printed 2.05×10^7 mol/L
  Elute phage concentration [Φ]e: 2.1e-14 mol/L
HSA [1]; HSA-4, sample 4, input 2.48×10^13 pfu/L
  Elute phage titer Φe: 2.8×10^6 pfu/L
HSA [1]; HSA-4, sample 4, input concentration printed 2.44×10^7 mol/L
  Elute phage concentration [Φ]e: 2.2e-14 mol/L
HSA [1]; HSA-4, sample 5, input 2.10×10^13 pfu/L
  Elute phage titer Φe: 2.16×10^6 pfu/L
HSA [1]; HSA-4, sample 5, input concentration printed 2.86×10^7 mol/L
  Elute phage concentration [Φ]e: 2.8e-14 mol/L
HSA [1]; read-out: Relative dissociation constant, phage-fused peptide vs immobilized HSA, double-reciprocal plot 1/[Φ]e vs 1/[Φ]t, linear regression, elution glycine-HCl pH 2.2
  Kd: 388 nM
HSA [2]
  Blank control phage titre: 5.22 × 10^5 pfu/ml
  Elute phage titre (HSA-coated well): 5.12 × 10^6 pfu/ml
HSA [2]; titer of eluted phage from target coated well / from blank control well
  Specificity ratio: 9.8

## AESQKLN [HSA-3]
HSA [1]; HSA-3, sample 1, input 1.13×10^14 pfu/L
  Elute phage titer Φe: 7.94×10^6 pfu/L
HSA [1]; HSA-3, sample 2, input 5.8×10^13 pfu/L
  Elute phage titer Φe: 7.5×10^6 pfu/L
HSA [1]; HSA-3, sample 2, input concentration printed 1.03×10^7 mol/L
  Elute phage concentration [Φ]e: 7.98e-13 mol/L
HSA [1]; HSA-3, sample 3, input 3.36×10^13 pfu/L
  Elute phage titer Φe: 5.68×10^6 pfu/L
HSA [1]; HSA-3, sample 3, input concentration printed 1.79×10^7 mol/L
  Elute phage concentration [Φ]e: 1.06e-14 mol/L
HSA [1]; HSA-3, sample 4
  Elute phage concentration [Φ]e: 2.39e-14 mol/L
HSA [1]; HSA-3, sample 4, input 2.16×10^13 pfu/L
  Elute phage titer Φe: 2.52×10^6 pfu/L
HSA [1]; HSA-3, sample 5, input 1.52×10^13 pfu/L
  Elute phage titer Φe: 2×10^6 pfu/L
HSA [1]; HSA-3, sample 5, input concentration printed 3.99×10^7 mol/L
  Elute phage concentration [Φ]e: 3.03e-14 mol/L
HSA [2]
  Blank control phage titre: 1.24 × 10^5 pfu/ml
  Elute phage titre (HSA-coated well): 9.16 × 10^5 pfu/ml

B1: HSA-3 peptide fused phage (peptide)
peptide: AESQKLN
notes: DNA GCGGAGAGTTAGAAGCTTAAT (TAG printed as Q); Measured as the peptide on whole phage, not as a free peptide; source: M13 phage clone from the Ph.D.-7 library, amplified in E. coli ER2738, purified (PEG/NaCl precipitation)
Human serum albumin [3]
  Kd: 529 nM
Human serum albumin [4]
  specificity ratio: 7.4
